Results reported in patent publication US20240374624A1, “NOVEL USE OF AT LEAST A HUMAN MILK OLIGOSACCHARIDE” (DSM IP ASSETS B.V., priority 2021, published 2024).

System: C. acnes (ATCC reference 11827)
Assay: Cutibacterium acnes Time-Kill Assay
Format: cell-based
Settings: for Log-step reduction (16 h) / Log-step reduction (24 h): reduction compared to initial log cfu/ml of 5.38, n=3; for effect on C. acnes (reduction or growth promotion, in words): summary of the time-kill study
Method: Cutibacterium acnes Time-Kill Assay:
Seven different HMOs were screened for their potential anti-microbial activities against C. acnes (ATCC reference 11827). The action of ingredients and combinations thereof is assessed through a miniaturized method performed in liquid media in 96 deepwell plates format. The inhibition of the growth of C. acnes is compared to the same strain growth in corresponding optimal media.
The different ingredients are mixed at two different concentrations in growth medium (final volume 2 mL) in deepwell plates (n=3 for each concentration).
Analysis controls are prepared and used identically to samples: • A growth control of C. acnes in the corresponding culture medium; • A […] consisting of Phenoxyethanol prepared at 0.5% (v/v) directly in the culture medium.
Then, samples are contaminated with C. acnes, inoculum at final concentration of 3.7×10^5 CFU/mL, and incubated at 37° C.±2.5° C. during 24 h. At each defined timepoint (i.e. 30 min, 2 h, 4 h, 16 h and 24 h), a pick-up of the contaminated samples is performed (20 L) after gentle agitation.
To perform the counting, aliquots of the contaminated samples are serially diluted (decimal dilutions) in culture medium in 96-well plates with triphenyltetrazolium and incubated at 37° C.±2.5° C. during 48 h. After 48 h at the optimal growing conditions, the last dilution showing a pink color (triphenyltetrazolium) or turbidity indicates the contamination rate and allow the determination of the corresponding microbial population.
The results of the Time-Kill study are presented in the table below data are shown as log-step reduction compared to initial log cfu/ml of 5.38.

[1] = 0.10 wt.-% ingredient in growth medium
[2] = 0.5 wt.-% ingredient in growth medium

Molecule	Log-step reduction (16 h) [1] [log-step]	Log-step reduction (24 h) [1] [log-step]	Log-step reduction (16 h) [2] [log-step]	Log-step reduction (24 h) [2] [log-step]	effect on C. acnes (reduction or growth promotion, in words)
2′-fucosyllactose [2′FL]	0.5	0.5	1.5	1.5	still provided a reduction of C. acnes
3-fucosyllactose [3FL (Ref), reference compound]	–	–	−0.4	−0.4	promoted C. acnes growth
CC(=O)N[C@H]1[C@H](O[C@H]2[C@@H](O)[C@@H](CO)O[C@@H](O[C@H]3[C@H](O)[C@@H](O)C(O)O[C@@H]3CO)[C@@H]2O)O[C@H](CO)[C@@H](O[C@@H]2O[C@H](CO)[C@H](O)[C@H](O)[C@H]2O)[C@@H]1O (mixture of isomers) [LNnT (Ref), lacto-N-neotetraose, reference compound]	−0.4	−0.4	−0.5	−0.5	promoted C. acnes growth
CC(=O)N[C@H]1[C@H](O[C@H]2[C@@H](O)[C@@H](CO)O[C@@H](O[C@H]3[C@H](O)[C@@H](O)C(O)O[C@@H]3CO)[C@@H]2O)O[C@H](CO)[C@@H](O)[C@@H]1O[C@@H]1O[C@H](CO)[C@H](O)[C@H](O)[C@H]1O (stereo partly drawn) [LNT, lacto-N-tetraose]	0.5	0.5	0.5	0.5	still provided a reduction of C. acnes
